In patent publication US12691084B2, “Pharmaceutical composition for preventing or treating bone diseases” (INDUSTRY FOUNDATION OF CHONNAM NATIONAL UNIVERSITY, priority 2019, dated 2026):

Columns and labels:
[1] = test system: osteoblast progenitor cells treated with hBMP2; experiment: Osteoblast differentiation, ALP staining; type: cell-based, mouse; conditions: 7 days
Experimental: After collecting cells from C57BL/6J mouse calvaria at the age of 3 days, the cells were seeded on a 96-well plate in an amount of 4×10^3 cells per well, and then treated with 100 ng/ml of hBMP2 as a differentiation inducer. Simultaneously, the cells were treated with the compound of the present invention and cultured for 7 days, followed by ALP staining to assess differentiation influence. Specific experimental methods and results are as follows.
Precursor cells isolated from the mouse skull were treated with hBMP2 (Bone morphogenic protein 2, Sino biological, 10426-HNAE, 100 ng/ml) to induce differentiation into osteoblasts. Differentiated osteoblasts could be discriminated through alkaline phosphatase (ALP) staining as an osteoblast-specific protein. When the progenitor cells were treated with hBMP2, each of the 35D35 compounds was also used for treatment, followed by culturing the cells for 7 days while changing the medium every 2 to 3 days.
4×10^3 osteoblast progenitor cells were put into a 96-well plate and treated with hBMP2 to induce differentiation of osteoblasts. At this time, the cells were treated with #25 (PMSA-3-Ac) and #25-D12 (PMSA-2-OMe-5-Cl), respectively, and then cultured for 7 days.
After discarding the ethanol, the remaining product was washed with HBSS, followed by adding a NBT solution (Sigma, B1911) in an amount of 100 μl per well and staining for 15 minutes. By washing twice with water, the remaining dye was eliminated. After ALP staining, a degree of color development was measured using Image J software, and then graphed for comparison. […] In other words, it can be seen that the differentiation of osteoblasts is not affected by treatment with the PMSA compound.
Precursor cells isolated from the mouse skull were treated with hBMP2 (Bone morphogenic protein 2, Sino biological, 10426-HNAE) to induce differentiation into osteoblasts. […]
After ALP staining, the degree of color development was measured using Image J software, and then graphed for comparison. […]

[2] = test system: monocytes isolated from mouse bone marrow treated with RANKL; experiment: Osteoclast differentiation inhibition, TRAP staining and assay; type: cell-based; conditions: for cells differentiated into osteoclasts (differentiation area ratio per total area): 10 μM, RANKL, Image J; for cells differentiated into osteoclasts (differentiation area ratio per total area) / osteoclast differentiation inhibitory ability: TRAP staining; for osteoclast differentiation inhibitory ability: area of differentiated osteoclasts
Experimental: Macrophages were isolated from bone marrow of 8-week old C57BL/6J mice, and seeded on a 96-well plate in an amount of 1×10^4 cells per well, followed by treating the cells with osteoclast differentiation factors M-CSF and RANKL at 30 ng/ml and 50 ng/ml, respectively. At the same time, the compounds were used for treatment, followed by culturing the cells for 3 to 4 days. Thereafter, differentiation influence was evaluated through TRAP staining and cell counting. Specific experimental procedures and results are as follows.
The bone marrow of a 10-week-old female mouse was isolated from the hip bone, femur and tibia, and incubated in α-MEM medium (Gibco, 12561-056, 10% fetal bovine serum, 1% penicillin/streptomycin) containing macrophage colony stimulating factor (M-CSF, PeproTech, 315-02, 30 ng/ml) for […] so as to isolate only monocytes. The isolated monocytes were treated with receptor activator of nuclear factor kappa B ligand (RANKL, PeproTech, 315-11, 50 ng/ml) to induce osteoclast differentiation. When a morphology of fused multinuclear cells began to appear from day 3 after treatment with RANKL, the cells were differentiated into giant multinuclear cells for 4 to 6 days (see FIG. 1), and dead by cell apoptosis after 6 days.
During RANKL treatment, each PMSA compound was also used for treatment, followed by culturing the cells for 3 or 5 days to confirm the effects of inhibiting osteoclast differentiation.
1×10^4 monocytes isolated from mouse bone marrow were put into a 96-well plate and treated with RANKL and PMSA together to confirm the effect of each PMSA on osteoclast differentiation ability. Each PMSA was used for treatment by concentration. The activity of tartrate-resistant acid phosphatase (TRAP), which has increased expression during osteoclast differentiation, was confirmed using a TRAP activity assay kit (Cosmo Bio, PMC-AK04F-COS) (see FIG. 2).
Further, after staining, the multinuclear cells formed during osteoclast differentiation were observed under a microscope, and each well was photographed and a differentiation area ratio per total area was determined using Image J software. […] Specifically, at 10 μM concentration, cells were differentiated into osteoclasts by 30% when using #25 (PMSA-3-Ac), similarly, 74% using #25-C (PMSA-Ph), 63% using #25-N (PMSA-PhN), 41% using #25-PhO (PMSA-O), and only 1% using #25-D12 (PMSA-2-OMe-5-Cl), respectively. […]

[3] = biological target: T1, CYP1A2 (Homo sapiens, UniProt P05177); experiment: CYP450 drug metabolism inhibition, 1A2; type: in vitro ADME; conditions: criterion remaining activity >50%
T1 sequence (P05177 1-516): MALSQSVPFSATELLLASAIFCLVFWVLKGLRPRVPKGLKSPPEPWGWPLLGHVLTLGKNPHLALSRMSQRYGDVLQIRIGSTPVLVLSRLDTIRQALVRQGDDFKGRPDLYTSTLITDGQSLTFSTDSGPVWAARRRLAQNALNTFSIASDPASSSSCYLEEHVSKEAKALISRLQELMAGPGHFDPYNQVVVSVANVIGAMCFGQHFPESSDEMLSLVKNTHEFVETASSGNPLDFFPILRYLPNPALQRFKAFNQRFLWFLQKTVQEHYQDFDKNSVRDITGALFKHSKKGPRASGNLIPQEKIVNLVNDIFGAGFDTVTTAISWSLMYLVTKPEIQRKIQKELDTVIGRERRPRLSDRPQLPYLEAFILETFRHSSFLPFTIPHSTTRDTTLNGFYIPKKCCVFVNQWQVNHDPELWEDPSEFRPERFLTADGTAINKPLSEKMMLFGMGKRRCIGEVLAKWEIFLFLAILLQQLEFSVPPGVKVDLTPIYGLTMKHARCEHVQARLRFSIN
Experimental: In order to analyze the drug metabolism of PMSA compound, ADME evaluation was requested to the Daegu-Gyeongbuk Advanced Medical industry Promotion Foundation (DGMIF). Metabolic stability of drugs using liver microsomes (microsomal stability), drug metabolism inhibitory ability by five CYP450 enzymes, plasma metabolism (plasma stability), plasma protein binding, and intestinal permeability of drugs (PAMPA, parallel artificial membrane permeability assay) were analyzed. […] Further, it was confirmed that the permeability resistance was excellent (see Table 3 below). On the other hand, for one of PMSA derivatives, that is, 2-(N-(3,5-dimethylphenyl)methylsulfinamido)-N-(2 (phenylthio)phenyl)propanamide (#25-D5), intestinal permeability of the drug (PAMPA) was not measured.

[4] = compared to group in which osteoclasts are normally differentiated

| Compound | osteoblast differentiation (ALP staining) [1] | cells differentiated into osteoclasts (differentiation area ratio per total area) [2] [%] | osteoclast differentiation inhibitory ability [2] | CYP 1A2 remaining activity [3] [%] | differentiation area [2, 4] | giant multinuclear cells [2, 4] | number of osteoclasts [2, 4] |
| --- | --- | --- | --- | --- | --- | --- | --- |
| CC(=O)c1cccc(N(CC(=O)Nc2ccccc2Sc2ccccc2)S(C)(=O)=O)c1 [#25, 2-(N-(3-acetylphenyl)methylsulfonamido)-N-(2-(phenylthio)phenyl)acetamide] | did not inhibit or activate | 30 | excellent | 85.7 |  |  |  |
| COc1ccc(Cl)cc1N(CC(=O)Nc1ccccc1Sc1ccccc1)S(C)(=O)=O [#25-D12, 2-(N-(5-chloro-2-methoxyphenyl)methylsulfonamido)-N-(2-(phenylthio)phenyl)acetamide] | did not inhibit or activate | 1 | excellent | 77.9 |  |  |  |
| Cc1cc(C)cc(N([C@@H](C)C(=O)Nc2ccccc2Sc2ccccc2)S(C)(=O)=O)c1 [#25-D5, N^2-(3,5-dimethylphenyl)-N^2-(methylsulfonyl)-N-[2-(phenylthio)phenyl]alanineamide] | not affected |  |  | 85.1 | significant reduction | significant reduction | significant reduction |
